Seven molecules from patent publication EP0565593B1, “REDUCING PESTICIDAL INTERACTIONS IN CROPS” (priority 1990, dated 1992) can be followed below.

Read-outs that look alike come from different tables or passages of the source.

Experiment [1] deals with Velvetleaf (VELE). In words: whole plant or invertebrate. Format: in vivo, Abutilon theophrasti. As to conditions: for inhibition at 140 g/ha: Abutilon theophrasti, iv, Herbicide No. 18 0.14 Kg/Ha, all PPI.
For a further experiment, the system named is SJCA. In words: Greenhouse test Procedure IV: herbicide, biocide and antidote PPI, weed SJCA (Examples 53-55; Tables 52-54). As to conditions: for inhibition at 140 g/ha: Herbicide No. 18 0.14 Kg/Ha, all PPI. Type of experiment: in vivo. The text has this:
The test in this example paralleled that in Example 51, except the procedure was according to Procedure IV above and the herbicides used were No. 1 (MON-12000); No. 21 (XRD-498) and, again, No. 18 (PURSUIT); the biocide was, again, MOCAP®. Observations were taken thirteen (13) days after PPI treatment with biocide and antidote.
This test was identical to that in Example 52, except for use of a different biocide, DIAZINON (Biocide No. 5, a nematicide and soil insecticide).
This test was also identical to that in the preceding two examples, except that the biocide was malathion (No. 7, an insecticide).
This test was identical to the preceding ones, except the biocide was DPX-43898 (No. 6, active ingredient in FORTRESS® insecticide, a soil insecticide). Also, the observation time was fourteen (14) days after PPI initiation.

Experiment [2] has as its system Corn.
A further experiment has as its system Shattercane (SHCA). Type of experiment: in vivo.
In experiment [3] the test system is Velvetleaf (VELE). Type of experiment: in vivo, Abutilon theophrasti.
For the next experiment, the system named is Giant foxtail (GIFT). In words: whole plant or invertebrate. The settings on record: Setaria faberi, iv, 312 h, Table 51; Herbicide No. 18 0.14 Kg/Ha; where applied Biocide No. 8 8.96 kg/Ha and antidote 4.48 Kg/Ha; all PPI; observed 13 days after treatment. Type of experiment: in vivo.
Experiment [4] has as its system Corn. This is another data set of the same source.
The test system of experiment [5] is Corn. Briefly: whole plant or invertebrate. The settings on record: Zea mays, iv, Herbicide No. 18 0.14 Kg/Ha, all PPI.
For experiment [6], the system named is Corn. Briefly: Greenhouse test Procedure II: herbicide, insecticide and antidote incorporated in cover layer (Example 4; Table 4). Format: in vivo. The settings on record: 3 weeks. The protocol:
(§1) Containers were filled and compacted with a fumigated silt loam top soil to a depth of about 1.3 cm from the top of the container. A first container was designated as an untreated control, a second container was designated as a herbicide control, and a third container was designated as a herbicide + antidote test container. Each of the containers was seeded with a crop species. A measured amount of herbicide dispersed or dissolved in acetone was applied to a measured quantity of soil. To this same quantity of soil treated with herbicide, there was added a measured amount of antidote dispersed or dissolved in acetone. The quantity of soil treated with the herbicide and antidote was thoroughly mixed to incorporate the herbicide and antidote in the soil uniformly. The seed bed in the third container of soil was covered with the soil treated with the herbicide and antidote and the container was leveled. For each test series, the seed beds of the first and second containers were likewise covered by soil layers. the cover layer of the first container was not treated with herbicide or antidote.
(§2) This procedure is the same as Procedure I, but modified in the manner that after incorporation of the chemicals (herbicide, antidote and insecticide), the containers with the covered seedbed were treated with an initial overhead irrigation equivalent to 0.6 cm rainfall, then subsequently sub-irrigated as required on greenhouse benches.
(§3) The procedure used in this test was Procedure No. 2 above. Formulations of herbicide, insecticide and antidote were applied via track sprayer sequentially onto cover layers, incorporated into the soil which was spread over seedbeds, then irrigated from above with 0.6 cm water. Observations were made three (3) weeks after treatment.

Another experiment relates to VELE (velvetleaf). In words: Greenhouse test Procedure II (Example 4; Table 4). Type of experiment: in vivo, Abutilon theophrasti. The settings on record: 3 weeks. The protocol: as §1, §2, §3
Where [7] appears, read: Table 52, Biocide No. 5 alone 8.96 kg/Ha PPI, observed 13 days after treatment.
Setting [8] is: Herbicide No. 18 0.0175 Kg/Ha POE alone, Table 17.
Where [9] appears, read: Herbicide No. 18 0.0175 Kg/Ha POE alone, Table 18.
Setting [10] is: Herbicide No. 18 alone, POE 5 DAP, observed 13 DAP.
[11] abbreviates: no antidote, […], observed 10 days after herbicide application.
Setting [12] is: 312 h, Table 52, where applied Biocide No. 5 8.96 kg/Ha and antidote 4.48 Kg/Ha, observed 13 days after treatment.
Setting [13] is: 336 h, Table 54, where applied Biocide No. 6 8.96 kg/Ha and antidote 4.48 Kg/Ha, observed 14 days after PPI initiation.
The mark [14] stands for this setting: Insecticide 2 3.36 + Herbicide 4 0.07 kg/Ha.
The mark [15] stands for this setting: Insecticide 2 3.36 + Herbicide 4 0.14 kg/Ha.
[16] abbreviates: Insecticide 2 3.36 + Herbicide 6 0.07 kg/Ha.
Where [17] appears, read: Insecticide 2 3.36 + Herbicide 6 0.14 kg/Ha.
[18] abbreviates: Insecticide 2 3.36 + Herbicide 5 0.07 kg/Ha.
Where [19] appears, read: Insecticide 2 3.36 + Herbicide 5 0.14 kg/Ha.
The mark [20] stands for this setting: Table 53, Biocide No. 7 alone 8.96 kg/Ha PPI, observed 13 days after treatment.
Where [21] appears, read: Table 54, Biocide No. 6 alone 8.96 kg/Ha PPI, observed 14 days after PPI initiation.

As to `CCOP(=S)(OCC)Oc1cc(C)nc(C(C)C)n1` [Biocide No. 5, O,O-Diethyl (-(2-isopropyl-4-methyl-6-pyrimidinyl phosphorothioate, reference compound], the “% Inhibition VELE” value with Velvetleaf (VELE) [1] (setting [7]) is listed as 25%. In addition, in the experiment with SJCA (setting [7]), the “% Inhibition SJCA” value was found to be 50%. Also, the “% Inhibition Corn” value in the experiment on Corn [2] (setting [7]) was found to be 0%.
Take `CC(C)C1(C)N=C(c2ncccc2C(=O)O)NC1=O` (centres unmarked) [Herbicide No. 18, 3-Pyridinecarboxylic acid, 2-[4,5-dihydro-4-methyl-4-(1-methylethyl)-5-oxo-1H-imidazol-2-yl]-, reference compound]: the “% Inhibition SHCA” value in the experiment on Shattercane (SHCA) (setting [8]) is 65%; in the experiment on Shattercane (SHCA) (setting [9]), 45%; in the experiment with Shattercane (SHCA) (setting [10]), 20%; with Shattercane (SHCA) (Table 50, Herbicide No. 18 0.017 Kg/Ha POE, where applied Biocide No. 8 8.96 kg/Ha and antidote 4.48 Kg/Ha PPI, observed 9 days after POE) it was 40%; in the experiment with Shattercane (SHCA) (setting [11]), 60%. Also, the “% Inhibition VELE” value in the experiment on Velvetleaf (VELE) [3] (setting [8]) turned out to be 80%; with Velvetleaf (VELE) [3] (setting [9]) it was 85%; with Velvetleaf (VELE) [3] (in vivo), 80%; with Velvetleaf (VELE) [3] (setting [11]), 80%. Besides, the inhibition (in general, the change of the read-out against control, counted positive when it falls) at 140 g/ha with Giant foxtail (GIFT) stood at 75%; in the experiment on Velvetleaf (VELE) [1] (312 h, Table 51, where applied Biocide No. 8 8.96 kg/Ha and antidote 4.48 Kg/Ha, observed 13 days after treatment) it was 65%; in the experiment on Velvetleaf (VELE) [1] (setting [12]), 75%; in the experiment on Velvetleaf (VELE) [1] (setting [13]), 70%; with SJCA (setting [12]), 75%; in the experiment with SJCA (312 h, Table 53, where applied Biocide No. 7 8.96 kg/Ha and antidote 4.48 Kg/Ha, observed 13 days after treatment), 70%. Further, the inhibition at 140 g/ha with SJCA (setting [13]) is 75%; in the experiment with Corn [5] (312 h, read-out: % Inhibition Corn, Table 51, where applied Biocide No. 8 8.96 kg/Ha and antidote 4.48 Kg/Ha, observed 13 days after treatment), 15%; in the experiment on Corn [5] (312 h, read-out: % Inhibition Corn, Table 52, where applied Biocide No. 5 8.96 kg/Ha and antidote 4.48 Kg/Ha, observed 13 days after treatment), 10%; in the experiment on Corn [5] (312 h, read-out: % Inhibition Corn, Table 53, where applied Biocide No. 7 8.96 kg/Ha and antidote 4.48 Kg/Ha, observed 13 days after treatment) it was 15%; with Corn [5] (336 h, read-out: % Inhibition Corn, Table 54, where applied Biocide No. 6 8.96 kg/Ha and antidote 4.48 Kg/Ha, observed 14 days after PPI initiation), 15%. The “% Inhibition Corn” value was 15% in the experiment on Corn [4] (setting [8]), 10% in the experiment with Corn [4] (setting [9]) and 5% in the experiment with Corn [4] (setting [10]).
In the case of “2-Thiophenecarboxylic acid, 3-[[[[(4,6-dimethoxy-1,3,5-triazin-2-yl)amino]carbonyl]amino]sulfonyl]-, methyl ester [Herbicide No. 4]”, the “% Injury Corn” value worked out at 15% with Corn [6] (Herbicide 4 0.07 kg/Ha), 38% in the experiment on Corn [6] (Herbicide 4 0.14 kg/Ha), 83% in the experiment with Corn [6] (setting [14]) and 80% in the experiment with Corn [6] (setting [15]). For the same molecule, the “% Injury VELE” value with VELE (velvetleaf) (Herbicide 4 0.07 kg/Ha) was found to be 10%; in the experiment with VELE (velvetleaf) (Herbicide 4 0.14 kg/Ha), 52%; in the experiment on VELE (velvetleaf) (setting [14]), 55%; in the experiment on VELE (velvetleaf) (setting [15]) it was 5%.
Regarding `CCc1cnc(C2=NC(C)(C(C)C)C(=O)N2)c(C(=O)O)c1` (centres unmarked) [Herbicide No. 6, 3-Pyridinecarboxylic acid, 2-[4,5-dihydro-4-methyl-4-(1-methylethyl)-5-oxo-1H-imidazol-2-yl]5-ethyl], the “% Injury Corn” value in the experiment with Corn [6] (Herbicide 6 0.07 kg/Ha) is given as 2%; with Corn [6] (Herbicide 6 0.14 kg/Ha), 23%; in the experiment on Corn [6] (setting [16]) it was 65%; with Corn [6] (setting [17]), 43%. Further, the “% Injury VELE” value worked out at 33% in the experiment on VELE (velvetleaf) (Herbicide 6 0.07 kg/Ha), 32% in the experiment on VELE (velvetleaf) (Herbicide 6 0.14 kg/Ha), 30% in the experiment on VELE (velvetleaf) (setting [16]) and 20% with VELE (velvetleaf) (setting [17]).
Take `CCOC(=O)c1ccccc1S(=O)(=O)NC(=O)Nc1nc(Cl)cc(OC)n1` [Herbicide No. 5, Benzoic acid, 2-[[[[(4-chloro-6-methoxy-2-pyrimidin-2-yl)amino]carbonyl]amino]sulfonyl]ethyl ester]: the “% Injury Corn” value in the experiment on Corn [6] (Herbicide 5 0.07 kg/Ha) came out at 88%; in the experiment on Corn [6] (Herbicide 5 0.14 kg/Ha), 92%; in the experiment on Corn [6] (setting [18]), 95%; in the experiment with Corn [6] (setting [19]), 98%. For the same molecule, the “% Injury VELE” value in the experiment with VELE (velvetleaf) (Herbicide 5 0.07 kg/Ha) is 57%; with VELE (velvetleaf) (Herbicide 5 0.14 kg/Ha) it was 77%; in the experiment on VELE (velvetleaf) (setting [18]), 83%; with VELE (velvetleaf) (setting [19]) it was 70%.
Consider `CCOC(=O)CC(SP(=S)(OC)OC)C(=O)OCC` (centres unmarked) [Biocide No. 7, O,O-Dimethyl phosphorothioate of diethyl mercaptosuccinate, reference compound], for which the “% Inhibition VELE” value in the experiment with Velvetleaf (VELE) [1] (setting [20]) was 0%. Moreover, the “% Inhibition SJCA” value in the experiment on SJCA (setting [20]) was found to be 0%. In the experiment with Corn [2] (setting [20]), the “% Inhibition Corn” value came out at 0%.
For `CCOP(=S)(OCC)OC(Cl)C(Cl)(Cl)Cl` (centres unmarked) [Biocide No. 6, O,O-Diethyl-O-1,2,2,2-tetrachloroethyl phosphorothioate, reference compound], in the experiment on Velvetleaf (VELE) [1] (setting [21]), the “% Inhibition VELE” value is recorded as 0%. In addition, the “% Inhibition SJCA” value in the experiment on SJCA (setting [21]) worked out at 0%. For the same molecule, in the experiment on Corn [2] (setting [21]), the “% Inhibition Corn” value is 0%.
